The structures appear in SMILES notation. In brackets after ≈: the same amount, converted by molar mass.

Drawing on ChEMBL document CHEMBL1158289, “Bioactive amides from Glycosmis species” (J Nat Prod, 1996), this text covers LC50 and EC50 for 7 molecules.

Data set [1] deals with Spodoptera littoralis. In words: Toxicity in Spodoptera littoralis neonatal larvae assessed as survival rate after 5 days. The class given is organism-based. As to conditions: in vivo, 120 h.
Data set [2] has as its system Spodoptera littoralis. In words: Contact toxicity in Spodoptera littoralis neonatal larvae assessed as mortality after 48 hrs. The class given is organism-based. As to conditions: in vivo.
The subject of data set [3] is Spodoptera littoralis. In words: Toxicity in Spodoptera littoralis neonatal larvae assessed as growth inhibition after 5 days. It is filed as organism-based.
A further data set has as its system Cladosporium herbarum. In words: Antifungal activity against Cladosporium herbarum assessed as inhibition of spore germination after 36 hrs by germtube inhibition test. The class given is functional. As to conditions: read-out: ED50 (the source's name).

As for `CS/C=C/C(=O)N(C)CCc1ccccc1`, the figures for the LC50 in the data set on Spodoptera littoralis [1] and in the data set on Spodoptera littoralis [2] were 4.24 µmol/g and 0.03 umol/dm'2, respectively. Besides, the EC50 is 0.47 µmol/g with Spodoptera littoralis [3] and 17.6 µg/mL (≈ 74.8 µM) with Cladosporium herbarum.
For `CSC(=O)N(C)/C=C/c1ccccc1` [DEHYDRONIRANIN A], in that order: 1.64 µmol/g, 0.18 umol/dm'2, 0.41 µmol/g and 100 µg/mL (≈ 482 µM).
For `CSC(=O)N(C)/C=C\c1ccccc1` [DEHYDRONIRANIN B] the same measures were 0.96 µmol/g, 0.02 umol/dm'2, 0.37 µmol/g and 8.4 µg/mL (≈ 40.5 µM).
With `CS/C=C/C(=O)N(C)/C=C/c1ccccc1` [METHYLILLUKUMBIN A], the LC50 with Spodoptera littoralis [1] was > 5 µmol/g; with Spodoptera littoralis [2], > 6.5 umol/dm'2. Moreover, the EC50 turned out to be 0.94 µmol/g with Spodoptera littoralis [3] and 5.5 µg/mL (≈ 23.6 µM) in the data set with Cladosporium herbarum.
For `CSC(=O)N(C)CCc1ccccc1` [NIRANIN] the same measures were 0.81 µmol/g, 0.03 umol/dm'2, 0.25 µmol/g and 28 µg/mL (≈ 134 µM).
On to `CNC(=O)/C=C/SC` [PENANGIN], for which the LC50 with Spodoptera littoralis [1] is > 10 µmol/g; with Spodoptera littoralis [2] it was 2.84 umol/dm'2. Further, the EC50 in the data set with Spodoptera littoralis [3] was 0.84 µmol/g; with Cladosporium herbarum, > 200 µg/mL.
For `CSC(=O)N(C)C(=O)Cc1ccccc1` [RITIGALIN] the same measures were 1.34 µmol/g, 0.05 umol/dm'2, 0.43 µmol/g and 156 µg/mL (≈ 699 µM).
